Data reported in ChEMBL document CHEMBL1201862, “PubChem BioAssay data set” (2004).
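Dose response: 5 concentrations. Exposure: 48 h. Format: 96-well plates. Endpoint: linear interpolation; highest concentration if not reached. The concentration for 50% growth inhibition is given as GI50.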 The source made the active and inactive calls. Cut-off read from the data, not from the text of the source: active = GI50 up to about 1.1 µM and inactive = higher.

How the values were obtained:
Assay in all cases: NCI anticancer screen, dose series, 48 h
MCF7 = system: MCF7
M19-MEL = system: M19-MEL
OVCAR-3 = system: OVCAR-3
SW-620 = system: SW-620
NCI-H226 = system: NCI-H226
IGROV-1 = system: IGROV-1
HOP-92 = system: HOP-92
K562 = system: K562
NCI-H460 = system: NCI-H460
DMS-114 = system: DMS-114
Malme-3M = system: Malme-3M
UACC-62 = system: UACC-62
OVCAR-8 = system: OVCAR-8
DMS-273 = system: DMS-273
COLO 205 = system: COLO 205
MOLT-4 = system: MOLT-4
HL-60 = system: HL-60
SR = system: SR
MDA-N = system: MDA-N
MDA-MB-231 = system: MDA-MB-231

Row | SMILES | GI50 (MCF7) | GI50 (M19-MEL) | GI50 (OVCAR-3) | GI50 (SW-620) | GI50 (NCI-H226) | GI50 (IGROV-1) | GI50 (HOP-92) | GI50 (K562) | GI50 (NCI-H460) | GI50 (DMS-114) | GI50 (Malme-3M) | GI50 (UACC-62) | GI50 (OVCAR-8) | GI50 (DMS-273) | GI50 (COLO 205) | GI50 (MOLT-4) | GI50 (HL-60) | GI50 (SR) | GI50 (MDA-N) | GI50 (MDA-MB-231)
1 | CSc1nc2c(ncn2C2OCC(O)C(O)C2O)c(=O)n1C (stereo unspecified) | > 100 µM (inactive) | > 100 µM (inactive) | > 100 µM (inactive) | > 100 µM (inactive) | > 100 µM (inactive) | > 100 µM (inactive) | > 100 µM (inactive) | > 100 µM (inactive) | > 100 µM (inactive) | > 100 µM (inactive) | > 100 µM (inactive) | > 100 µM (inactive) | > 100 µM (inactive) | > 100 µM (inactive) | > 100 µM (inactive) | > 100 µM (inactive) | > 100 µM (inactive) | – | – | –
2 | COc1ccc(Sc2ccccc2N)cc1 | – | 36.7 µM (inactive) | 29.1 µM (inactive) | 57.1 µM (inactive) | 22.7 µM (inactive) | 65.2 µM (inactive) | 21.1 µM (inactive) | 41.6 µM (inactive) | 52.5 µM (inactive) | 29.8 µM (inactive) | 57.8 µM (inactive) | 71.4 µM (inactive) | 60.5 µM (inactive) | 30.6 µM (inactive) | 17 µM (inactive) | 26.9 µM (inactive) | 18.8 µM (inactive) | 22.8 µM (inactive) | – | –
3 | C=C/C(C)=C/[C@H](C)C(=O)C[C@H](O)CC1CC(=O)NC(=O)C1 | 27.5 µM (inactive) | 80.4 µM (inactive) | 49.2 µM (inactive) | 31.5 µM (inactive) | 41 µM (inactive) | 19.9 µM (inactive) | 21.7 µM (inactive) | 43.4 µM (inactive) | 37.7 µM (inactive) | 38.3 µM (inactive) | 16 µM (inactive) | 37.2 µM (inactive) | 24.2 µM (inactive) | 34.9 µM (inactive) | 34.1 µM (inactive) | 19.8 µM (inactive) | 20.3 µM (inactive) | – | – | –
4 | CN(C(=O)c1ccc(OCCCC(=O)O)c(Cl)c1Cl)C1CCCC1 | > 100 µM (inactive) | > 100 µM (inactive) | > 100 µM (inactive) | > 100 µM (inactive) | 83.8 µM (inactive) | > 100 µM (inactive) | 45.3 µM (inactive) | > 100 µM (inactive) | > 95.3 µM (inactive) | 69.5 µM (inactive) | > 100 µM (inactive) | > 100 µM (inactive) | > 100 µM (inactive) | > 100 µM (inactive) | > 100 µM (inactive) | > 100 µM (inactive) | > 72.8 µM (inactive) | – | – | –
5 | COc1cc(C2c3cc4c(cc3[C@@H](Nc3cccc(C(C)=O)c3)C3COC(=O)[C@H]23)OCO4)cc(OC)c1O (stereo partly specified) | 0.0785 µM (active) | 0.897 µM (active) | 1.91 µM (inactive) | 0.2 µM (active) | 0.236 µM (active) | 3.03 µM (inactive) | 0.478 µM (active) | 0.536 µM (active) | < 0.01 µM (active) | 0.505 µM (active) | 1.28 µM (inactive) | 0.233 µM (active) | 0.968 µM (active) | 0.0497 µM (active) | 1.86 µM (inactive) | < 0.01 µM (active) | < 0.0327 µM (active) | – | – | –
6 | COC(=O)C1CCC(=O)N1/C(C)=N/NC(=O)Nc1ccc(Cl)c(Cl)c1 (stereo unspecified) | – | > 100 µM (inactive) | > 100 µM (inactive) | > 100 µM (inactive) | – | > 100 µM (inactive) | > 100 µM (inactive) | 16.6 µM (inactive) | > 100 µM (inactive) | > 100 µM (inactive) | – | 10.5 µM (inactive) | > 100 µM (inactive) | > 100 µM (inactive) | > 100 µM (inactive) | 99.1 µM (inactive) | > 100 µM (inactive) | > 100 µM (inactive) | – | –
7 | COc1ccc2cc1Oc1ccc(cc1)C[C@H]1c3cc(c(OC)cc3CCN1C)Oc1c(O)c(OC)cc3c1[C@H](C2)N(C)CC3 [FANGCHINOLINE] | 26.6 µM (inactive) | 22.6 µM (inactive) | 21.6 µM (inactive) | 15 µM (inactive) | 39.9 µM (inactive) | 27.1 µM (inactive) | 7.64 µM (inactive) | 11.4 µM (inactive) | 21.8 µM (inactive) | 24.7 µM (inactive) | 30.7 µM (inactive) | 20.7 µM (inactive) | 5.25 µM (inactive) | 14.7 µM (inactive) | 15.8 µM (inactive) | 11.7 µM (inactive) | 14 µM (inactive) | – | – | –
8 | N/C(=N\O)N/N=C\c1cc([N+](=O)[O-])cc([N+](=O)[O-])c1O | 19.1 µM (inactive) | 40.6 µM (inactive) | 59.3 µM (inactive) | 13.9 µM (inactive) | 29.4 µM (inactive) | – | > 100 µM (inactive) | 5.26 µM (inactive) | 2.76 µM (inactive) | 6.08 µM (inactive) | > 100 µM (inactive) | 1.58 µM (inactive) | 6.11 µM (inactive) | 2.72 µM (inactive) | 15.3 µM (inactive) | 10.2 µM (inactive) | 3.36 µM (inactive) | – | – | –
9 | COC(=O)C1=COC2OC3/C(=C\c4ccc(O)c(OC)c4)C(=O)OC34C=CC1C24 (stereo unspecified) | – | 14.2 µM (inactive) | 14.9 µM (inactive) | 20 µM (inactive) | 14.4 µM (inactive) | 24.4 µM (inactive) | 22.5 µM (inactive) | 15.5 µM (inactive) | 17.9 µM (inactive) | 24.7 µM (inactive) | 16.5 µM (inactive) | 19.6 µM (inactive) | 18.9 µM (inactive) | 16.3 µM (inactive) | 20.1 µM (inactive) | 31.2 µM (inactive) | 9.18 µM (inactive) | 28.8 µM (inactive) | – | –
10 | O=c1cnn(C2OC(CO)C(O)C2O)c(=S)[nH]1 (stereo unspecified) | 10.6 µM (inactive) | 43.1 µM (inactive) | > 54.2 µM (inactive) | 5.21 µM (inactive) | > 100 µM (inactive) | 28.7 µM (inactive) | > 100 µM (inactive) | 0.589 µM (active) | 0.316 µM (active) | 29.6 µM (inactive) | > 77.8 µM (inactive) | 19.4 µM (inactive) | 10.6 µM (inactive) | 2.31 µM (inactive) | 54.1 µM (inactive) | 0.938 µM (active) | 2.05 µM (inactive) | 1.02 µM (active) | > 100 µM (inactive) | > 100 µM (inactive)
11 | ClCc1nnc2n1-c1ccc(Cl)cc1SC2 | 4.2 µM (inactive) | 3.23 µM (inactive) | 2.17 µM (inactive) | 4.55 µM (inactive) | 1.94 µM (inactive) | 2.94 µM (inactive) | 2.55 µM (inactive) | 2.9 µM (inactive) | 3.66 µM (inactive) | 2.8 µM (inactive) | 3.88 µM (inactive) | 2.69 µM (inactive) | 4.02 µM (inactive) | 2.92 µM (inactive) | 4.06 µM (inactive) | 1.45 µM (inactive) | 1.56 µM (inactive) | – | – | –
12 | C/C([O-])=C(/c1nc(-c2ccc([N+](=O)[O-])o2)no1)[n+]1cc(C)ccc1C | 4.02 µM (inactive) | 5.19 µM (inactive) | 19.6 µM (inactive) | 5.31 µM (inactive) | 15.7 µM (inactive) | 29 µM (inactive) | > 100 µM (inactive) | 0.692 µM (active) | 4.62 µM (inactive) | 16.3 µM (inactive) | 14.3 µM (inactive) | 7.21 µM (inactive) | 19.8 µM (inactive) | 11.7 µM (inactive) | 6.08 µM (inactive) | > 100 µM (inactive) | – | – | – | –
13 | Nc1nnc(N)n1NC(=O)C(=O)Nc1ccc([N+](=O)[O-])cc1 | – | > 100 µM (inactive) | – | > 100 µM (inactive) | > 100 µM (inactive) | > 100 µM (inactive) | > 100 µM (inactive) | 98.9 µM (inactive) | > 100 µM (inactive) | > 100 µM (inactive) | > 100 µM (inactive) | 49.1 µM (inactive) | > 100 µM (inactive) | > 100 µM (inactive) | > 100 µM (inactive) | > 100 µM (inactive) | > 100 µM (inactive) | > 100 µM (inactive) | – | –
14 | Cc1c(N=NN(C)C)cc[n+]([O-])c1C | > 100 µM (inactive) | > 100 µM (inactive) | > 100 µM (inactive) | > 100 µM (inactive) | > 100 µM (inactive) | > 100 µM (inactive) | > 100 µM (inactive) | > 100 µM (inactive) | > 100 µM (inactive) | > 100 µM (inactive) | > 100 µM (inactive) | > 100 µM (inactive) | > 100 µM (inactive) | > 100 µM (inactive) | > 100 µM (inactive) | > 100 µM (inactive) | > 100 µM (inactive) | – | – | –
